Literature values in PMC12465416 (BMC Infectious Diseases, 2025).
Counter-ions that a name gives are not always drawn. Where a SMILES comes first, the peptide text is derived from it. Bridges are numbered along the chain shown (N, C = ends). [ ]: non-standard residue; d: D form. The star is where a group is joined. X1 = CC[C@H](C)CCCCC(=O)*; Dab = NCC[C@H](N)C(=O)O

Settings: IV PMB alone to treat CRGNB pneumonia

CC[C@H](C)CCCCC(=O)N[C@@H](CCN)C(=O)N[C@H](C(=O)N[C@@H](CCN)C(=O)N[C@H]1CCNC(=O)[C@H]([C@@H](C)O)NC(=O)[C@H](CCN)NC(=O)[C@H](CCN)NC(=O)[C@H](CC(C)C)NC(=O)[C@@H](Cc2ccccc2)NC(=O)[C@H](CCN)NC1=O)[C@@H](C)O [PMB, polymyxin B sulfate] (X1-[Dab]T[Dab][Dab][Dab][dF]L[Dab][Dab]T; lactam 4-C)
drug concentrations in ELF compared with those in plasma: significantly lower
